Source: patent US20200397913A1, “AXL-SPECIFIC ANTIBODY-DRUG CONJUGATES FOR CANCER TREATMENT” (GENMAB A/S, priority 2015, published 2020)

How the values were obtained:
PC9 wild type cells = test: In vitro cytotoxicity assay, NSCLC cell line; format: cell-based, human
SKMEL28R cells = test: Melanoma cell line viability assay (CellTiter-Glo); format: cell-based, human; conditions: ADC 1×10^−4 to 10 μg/mL, 5 days
M016 cells = test: Patient-derived low passage melanoma culture viability assay; format: cell-based, human; conditions: ADC 8 days
CV1664 tumors = test: Cervical cancer PDX model CV1664; format: in vivo, BALB/c nude mice
Experimental: Inoculation of tumor fragments into BALB/c nude mice and randomization was performed as described in Example 21.

Substance: IgG1-AXL-107-vcMMAE: IgG1-AXL-107 conjugated at cysteines to vcMMAE (mc-vc-PAB linker, MMAE)
- sensitivity of the cell line (cell viability) (PC9 wild type cells): insensitive
- sensitivity of the cell line to the substance (SKMEL28R cells): sensitive
- sensitivity of the cell line to the substance (SKMEL28R cells; listed as HuMax-AXL-ADC): Sensitive
- sensitivity of the culture to the substance (M016 cells): sensitive
- sensitivity of the culture to the substance (M016 cells; listed as HuMax-AXL-ADC): Sensitive
- anti-tumor activity (CV1664 tumors; 2 mg/kg at day 0 and 7): induced strong tumor regression
- anti-tumor activity (CV1664 tumors; 4 mg/kg at day 0 and 7): induced strong tumor regression
- anti-tumor activity upon treatment of mice with regrowth after paclitaxel (CV1664 tumors; 2 doses of 4 mg/kg on days 55 and 62, three mice): Two of the three mice showed complete tumor regression
- anti-tumor activity upon retreatment of mice with regrowth after 4 mg/kg IgG1-AXL-107-vcMMAE (CV1664 tumors; 2 doses of 4 mg/kg on days 55 and 62, two mice): partial tumor regression in both mice
